Measurements from PubChem BioAssay (NCI).
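The compound was tested at five concentrations on cells cultured in 96-well plates, with a 48-hour exposure period. TGI denotes the concentration required for complete inhibition of growth.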

Assays:
Assay in all cases: NCI-60 cell line screen, 48 h
[1] = test system: HL-60(TB) leukemia
[2] = test system: MDA-MB-231 breast
[3] = test system: LOX IMVI melanoma
[4] = test system: SF-268 CNS
[5] = test system: SK-MEL-28 melanoma
[6] = test system: ACHN renal
[7] = test system: SF-295 CNS
[8] = test system: CCRF-CEM leukemia
[9] = test system: EKVX NSCLC
[10] = test system: MDA-MB-435

Measured: TGI

CN1CCN(c2ccc3[nH]c(C4=C(O)c5nc(CO)n(C)c5C(=O)C4=O)nc3n2)CC1
> 100 µM: all assays above

CCC1(C)N=C(C(N)=O)c2ncn(N=C(C)C)c2N1 (stereo not given)
> 100 µM: all assays above
